Laboratory results reported in ChEMBL document CHEMBL3272271, “Folate antagonists. 13. 2,4-Diamino-6-](alpha,alpha,alpha-trifluoro-m-tolyl)thio]quinazoline and related 2,4-diamino-6-[(phenyl- and naphthyl)thio]quinazolines, a unique class of antimetabolites with extraordinary antimalarial and antibacterial effects” (J Med Chem, 1978).
In brackets after ≈: the same amount, converted by molar mass. Activity calls are given as the source filed them. The rule behind the calls is not given here.

What was measured:
Enterococcus faecalis = assay: Antibacterial activity against Streptococcus faecalis MGH-2 by gradient plate test; format: functional
Staphylococcus aureus [1] = assay: Antibacterial activity against Staphylococcus aureus UC-96 by gradient plate test; format: functional
Staphylococcus aureus [2] = assay: Antibacterial activity against drug-resistant Staphylococcus aureus S18713 by gradient plate test; format: functional
Pseudomonas aeruginosa = assay: Antibacterial activity against Pseudomonas aeruginosa 28 by gradient plate test; format: functional
Escherichia coli = assay: Antibacterial activity against Escherichia coli Vogel by gradient plate test; format: functional
Shigella sonnei = assay: Antibacterial activity against Shigella sonnei C-10 by gradient plate test; format: functional
[3] = test system: Mycobacterium tuberculosis; assay: Antibacterial activity against Mycobacterium tuberculosis H37Ra by gradient plate test; format: functional
Plasmodium berghei [4] = assay: Antimalarial activity against Plasmodium berghei infected in mouse assessed as increase in mean survival days of host at 20 mg/kg, sc administered 72 hrs after infection relative to control; format: functional; details: route subcutaneous
Plasmodium berghei [5] = assay: Antimalarial activity against Plasmodium berghei infected in mouse assessed as increase in mean survival days of host at 10 mg/kg, sc administered 72 hrs after infection relative to control; format: functional; details: route subcutaneous
Plasmodium berghei [6] = assay: Antimalarial activity against Plasmodium berghei infected in mouse assessed as increase in mean survival days of host at 5 mg/kg, sc administered 72 hrs after infection relative to control; format: functional; details: route subcutaneous
Plasmodium berghei [7] = assay: Antimalarial activity against Plasmodium berghei infected in mouse assessed as increase in mean survival days of host at 2.5 mg/kg, sc administered 72 hrs after infection relative to control; format: functional; details: route subcutaneous
Plasmodium berghei [8] = assay: Antimalarial activity against Plasmodium berghei infected in mouse assessed as increase in mean survival days of host at 1.25 mg/kg, sc administered 72 hrs after infection relative to control; format: functional; details: route subcutaneous
Plasmodium berghei [9] = assay: Antimalarial activity against Plasmodium berghei infected in mouse assessed as disease cure from parasite infection at 640 mg/kg, sc administered 72 hrs after infection; format: functional, organism-based; design: dose 640 mg/kg
Plasmodium berghei [10] = assay: Antimalarial activity against Plasmodium berghei infected in mouse assessed as disease cure from parasite infection at 320 mg/kg, sc administered 72 hrs after infection; format: functional, organism-based; design: dose 320 mg/kg
Plasmodium berghei [11] = assay: Antimalarial activity against Plasmodium berghei infected in mouse assessed as disease cure from parasite infection at 160 mg/kg, sc administered 72 hrs after infection; format: functional, organism-based; design: dose 160 mg/kg
Plasmodium berghei [12] = assay: Antimalarial activity against Plasmodium berghei infected in mouse assessed as disease cure from parasite infection at 80 mg/kg, sc administered 72 hrs after infection; format: functional, organism-based; design: dose 80 mg/kg
Plasmodium berghei [13] = assay: Antimalarial activity against Plasmodium berghei infected in mouse assessed as disease cure from parasite infection at 40 mg/kg, sc administered 72 hrs after infection; format: functional, organism-based; design: dose 40 mg/kg
Plasmodium berghei [14] = assay: Antimalarial activity against Plasmodium berghei infected in mouse assessed as disease cure from parasite infection at 20 mg/kg, sc administered 72 hrs after infection; format: functional, organism-based; design: dose 20 mg/kg
Plasmodium berghei [15] = assay: Antimalarial activity against Plasmodium berghei infected in mouse assessed as disease cure from parasite infection at 10 mg/kg, sc administered 72 hrs after infection; format: functional, organism-based; design: dose 10 mg/kg
Plasmodium berghei [16] = assay: Antimalarial activity against Plasmodium berghei infected in mouse assessed as disease cure from parasite infection at 5 mg/kg, sc administered 72 hrs after infection; format: functional, organism-based; design: dose 5 mg/kg
Plasmodium gallinaceum [17] = assay: Antimalarial activity against trophozoite-induced Plasmodium gallinaceum infected in white leghorn chicken assessed as disease cure from parasite infection at 320 mg/kg, sc administered 72 hrs after infection; format: functional, organism-based; design: dose 320 mg/kg
Plasmodium gallinaceum [18] = assay: Antimalarial activity against trophozoite-induced Plasmodium gallinaceum infected in white leghorn chicken assessed as disease cure from parasite infection at 160 mg/kg, sc administered 72 hrs after infection; format: functional, organism-based; design: dose 160 mg/kg
Plasmodium gallinaceum [19] = assay: Antimalarial activity against sporozoite-induced Plasmodium gallinaceum infected in white leghorn chicken assessed as disease cure from parasite infection at 320 mg/kg, sc administered 72 hrs after infection; format: functional, organism-based; design: dose 320 mg/kg
Gallus gallus [20] = assay: Toxicity in sporozoite-induced Plasmodium gallinaceum infected white leghorn chicken assessed as mortality at 320 mg/kg, sc administered 72 hrs after infection measured up to 6 days; format: organism-based; design: dose 320 mg/kg, route subcutaneous; details: in vivo
Plasmodium gallinaceum [21] = assay: Antimalarial activity against sporozoite-induced Plasmodium gallinaceum infected in white leghorn chicken assessed as disease cure from parasite infection at 160 mg/kg, sc administered 72 hrs after infection; format: functional, organism-based; design: dose 160 mg/kg
Gallus gallus [22] = assay: Toxicity in sporozoite-induced Plasmodium gallinaceum infected white leghorn chicken assessed as mortality at 160 mg/kg, sc administered 72 hrs after infection measured up to 6 days; format: organism-based; design: dose 160 mg/kg, route subcutaneous; details: in vivo
Plasmodium gallinaceum [23] = assay: Antimalarial activity against sporozoite-induced Plasmodium gallinaceum infected in white leghorn chicken assessed as increase in mean survival days of host at 80 mg/kg, sc administered 72 hrs after infection relative to control; format: functional; details: route subcutaneous
Plasmodium gallinaceum [24] = assay: Antimalarial activity against sporozoite-induced Plasmodium gallinaceum infected in white leghorn chicken assessed as disease cure from parasite infection at 80 mg/kg, sc administered 72 hrs after infection; format: functional, organism-based; design: dose 80 mg/kg
Plasmodium gallinaceum [25] = assay: Antimalarial activity against sporozoite-induced Plasmodium gallinaceum infected in white leghorn chicken assessed as increase in mean survival days of host at 40 mg/kg, sc administered 72 hrs after infection relative to control; format: functional; details: route subcutaneous
Plasmodium gallinaceum [26] = assay: Antimalarial activity against sporozoite-induced Plasmodium gallinaceum infected in white leghorn chicken assessed as disease cure from parasite infection at 40 mg/kg, sc administered 72 hrs after infection; format: functional, organism-based; design: dose 40 mg/kg
Plasmodium gallinaceum [27] = assay: Antimalarial activity against sporozoite-induced Plasmodium gallinaceum infected in white leghorn chicken assessed as increase in mean survival days of host at 20 mg/kg, sc administered 72 hrs after infection relative to control; format: functional; details: route subcutaneous
Plasmodium gallinaceum [28] = assay: Antimalarial activity against sporozoite-induced Plasmodium gallinaceum infected in white leghorn chicken assessed as disease cure from parasite infection at 20 mg/kg, sc administered 72 hrs after infection; format: functional, organism-based; design: dose 20 mg/kg
Plasmodium gallinaceum [29] = assay: Antimalarial activity against sporozoite-induced Plasmodium gallinaceum infected in white leghorn chicken assessed as increase in mean survival days of host at 10 mg/kg, sc administered 72 hrs after infection relative to control; format: functional; details: route subcutaneous
Plasmodium gallinaceum [30] = assay: Antimalarial activity against sporozoite-induced Plasmodium gallinaceum infected in white leghorn chicken assessed as disease cure from parasite infection at 10 mg/kg, sc administered 72 hrs after infection; format: functional, organism-based; design: dose 10 mg/kg
Plasmodium berghei [31] = assay: Antimalarial activity against trophozoite-induced Plasmodium berghei infected in mouse assessed as daily dose required to suppression of 90% parasite infection administered with diet for 6 days; format: functional
Plasmodium berghei [32] = assay: Ratio of quinine hydrochloride SD90 to compound SD90 for trophozoite-induced Plasmodium berghei infected in mouse assessed as daily dose required to suppression of 90% parasite infection administered with diet for 6 days; format: functional
Plasmodium gallinaceum [33] = assay: Antimalarial activity against trophozoite-induced Plasmodium gallinaceum infected in white leghorn chicken assessed as increase in mean survival days of host at 320 mg/kg, sc administered 72 hrs after infection relative to control; format: functional; details: route subcutaneous
Plasmodium gallinaceum [34] = assay: Antimalarial activity against trophozoite-induced Plasmodium gallinaceum infected in white leghorn chicken assessed as increase in mean survival days of host at 160 mg/kg, sc administered 72 hrs after infection relative to control; format: functional; details: route subcutaneous
Plasmodium gallinaceum [35] = assay: Antimalarial activity against trophozoite-induced Plasmodium gallinaceum infected in white leghorn chicken assessed as increase in mean survival days of host at 80 mg/kg, sc administered 72 hrs after infection relative to control; format: functional; details: route subcutaneous
Plasmodium gallinaceum [36] = assay: Antimalarial activity against trophozoite-induced Plasmodium gallinaceum infected in white leghorn chicken assessed as increase in mean survival days of host at 40 mg/kg, sc administered 72 hrs after infection relative to control; format: functional; details: route subcutaneous
Plasmodium gallinaceum [37] = assay: Antimalarial activity against trophozoite-induced Plasmodium gallinaceum infected in white leghorn chicken assessed as increase in mean survival days of host at 20 mg/kg, sc administered 72 hrs after infection relative to control; format: functional; details: route subcutaneous
Plasmodium gallinaceum [38] = assay: Antimalarial activity against trophozoite-induced Plasmodium gallinaceum infected in white leghorn chicken assessed as increase in mean survival days of host at 10 mg/kg, sc administered 72 hrs after infection relative to control; format: functional; details: route subcutaneous
Plasmodium gallinaceum [39] = assay: Antimalarial activity against trophozoite-induced Plasmodium gallinaceum infected in white leghorn chicken assessed as increase in mean survival days of host at 5 mg/kg, sc administered 72 hrs after infection relative to control; format: functional; details: route subcutaneous
Plasmodium gallinaceum [40] = assay: Antimalarial activity against trophozoite-induced Plasmodium gallinaceum infected in white leghorn chicken assessed as increase in mean survival days of host at 2.5 mg/kg, sc administered 72 hrs after infection relative to control; format: functional; details: route subcutaneous
Plasmodium gallinaceum [41] = assay: Antimalarial activity against trophozoite-induced Plasmodium gallinaceum infected in white leghorn chicken assessed as increase in mean survival days of host at 1.25 mg/kg, sc administered 72 hrs after infection relative to control; format: functional; details: route subcutaneous
Plasmodium gallinaceum [42] = assay: Antimalarial activity against trophozoite-induced Plasmodium gallinaceum infected in white leghorn chicken assessed as increase in mean survival days of host at 0.63 mg/kg, sc administered 72 hrs after infection relative to control; format: functional; details: route subcutaneous

For `Nc1nc(N)c2c(Cl)c(Sc3ccc4ccccc4c3)ccc2n1`, the MIC (Enterococcus faecalis) was under 0.25 µg/mL, the MIC (Staphylococcus aureus [1]) was 1.5 µg/mL (≈ 4.25 µM) and the MIC (Staphylococcus aureus [2]) was 5 µg/mL (≈ 14.2 µM). For the same compound, the MIC (Pseudomonas aeruginosa) was over 25 µg/mL, the MIC (Escherichia coli) was 10 µg/mL (≈ 28.3 µM) and the MIC (Shigella sonnei) was over 25 µg/mL. For the same compound, the MIC [3] was 10 µg/mL (≈ 28.3 µM), the MST (Plasmodium berghei [4]) was 15.9 days and the MST (Plasmodium berghei [5]) was 15.9 days. The MST (Plasmodium berghei [6]) was 12.7 days, the MST (Plasmodium berghei [7]) was 7.9 days and the MST (Plasmodium berghei [8]) was 5.5 days. For the same compound, the Activity (Plasmodium berghei [9]) was “Active”, the Activity (Plasmodium berghei [10]) was “Active” and the Activity (Plasmodium berghei [11]) was “Active”. For the same compound, the Activity (Plasmodium berghei [12]) was “Active”, the Activity (Plasmodium berghei [13]) was “Active” and the Activity (Plasmodium berghei [14]) was “Active”. For the same compound, the Activity (Plasmodium berghei [15]) was “Active” and the Activity (Plasmodium berghei [16]) was “Active”.
With `Nc1nc(N)c2cc(Sc3ccc(F)cc3)ccc2n1` the Activity (Plasmodium gallinaceum [17]) was “Active”, the Activity (Plasmodium gallinaceum [18]) was “Active” and the MIC (Enterococcus faecalis) was under 0.25 µg/mL. For the same compound, the MIC (Staphylococcus aureus [1]) was under 0.25 µg/mL, the MIC (Staphylococcus aureus [2]) was under 0.25 µg/mL and the MIC (Pseudomonas aeruginosa) was over 25 µg/mL. The MIC (Escherichia coli) was under 0.25 µg/mL, the MIC (Shigella sonnei) was under 0.25 µg/mL and the Activity (Plasmodium gallinaceum [19]) was “Active”. For the same compound, the Activity (Gallus gallus [20]) was “Toxic”, the Activity (Plasmodium gallinaceum [21]) was “Active” and the Activity (Gallus gallus [22]) was “Toxic”. For the same compound, the MST (Plasmodium gallinaceum [23]) was 0.5 days, the Activity (Plasmodium gallinaceum [24]) was “Active” and the MST (Plasmodium gallinaceum [25]) was 0.5 days. The Activity (Plasmodium gallinaceum [26]) was “Active”, the MST (Plasmodium gallinaceum [27]) was 0.5 days and the Activity (Plasmodium gallinaceum [28]) was “Active”. For the same compound, the MST (Plasmodium gallinaceum [29]) was 6.5 days, the Activity (Plasmodium gallinaceum [30]) was “Active” and the MST (Plasmodium berghei [4]) was 13.5 days. It also gave an MST (Plasmodium berghei [5]) of 11.1 days, an MST (Plasmodium berghei [6]) of 7.1 days and an MST (Plasmodium berghei [7]) of 6.1 days. For the same compound, the MST (Plasmodium berghei [8]) was 5.3 days, the Activity (Plasmodium berghei [9]) was “Active” and the Activity (Plasmodium berghei [10]) was “Active”. The Activity (Plasmodium berghei [11]) was “Active”, the Activity (Plasmodium berghei [12]) was “Active” and the Activity (Plasmodium berghei [13]) was “Active”. The Activity (Plasmodium berghei [14]) was “Active”, the SD90 (Plasmodium berghei [31]) was 0.36 mg/kg/day and the Ratio (Plasmodium berghei [32]) was 210. For the same compound, the MST (Plasmodium gallinaceum [33]) was 19.3 days, the MST (Plasmodium gallinaceum [34]) was 15.5 days and the MST (Plasmodium gallinaceum [35]) was 13 days. It also gave an MST (Plasmodium gallinaceum [36]) of 9.2 days, an MST (Plasmodium gallinaceum [37]) of 7.8 days and an MST (Plasmodium gallinaceum [38]) of 7.2 days. For the same compound, the MST (Plasmodium gallinaceum [39]) was 5.8 days, the MST (Plasmodium gallinaceum [40]) was 3.2 days and the MST (Plasmodium gallinaceum [41]) was 0 days. For the same compound, the MST (Plasmodium gallinaceum [42]) was 0 days.
